Test results taken from patent US10105357B2, “Indication of antibiotic drugs for preparation of cancer inhibition pharmaceutical composition” (LAUNX BIOMEDICAL CO., LTD., priority 2014, dated 2018).
Where a name gives a salt, the structure may show the parent alone. Read-outs that look alike come from different tables or passages of the source.

Experiments:
Type in all cases: cell-based, human
[1] = system: A549 (Lung Adenocarcinoma); assay: Cell viability analysis, lung cancer A549; conditions: for viability at 10 µM: Homo sapiens, A549, 72 h
[2] = system: BCC (basal cell carcinoma); assay: Cell viability analysis, skin cancer BCC; conditions: BCC; repeated experiment
[3] = system: MCF7 (Mammary Gland, Adenocarcinoma); assay: Cell viability analysis, breast cancer MCF7; conditions: for viability at 10 µM: Homo sapiens, MCF7, 72 h
cancer cell lines = assay: Cell viability analysis (WST-1) on cancer cell lines; conditions: drug 10 μM, 72 hours, WST-1; Table 3
[4] = system: TSGH-8301 (Urinary Bladder Carcinoma); assay: Cell viability analysis, bladder cancer TSGH-8301; conditions: for viability at 10 µM: Homo sapiens, 72 h
TOV-21G = assay: Cell viability analysis, ovarian cancer TOV-21G; conditions: TOV-21G; repeated experiment
[5] = system: MDA-MB-231 (Mammary Gland, Adenocarcinoma); assay: Cell viability analysis, breast cancer MDA-MB-231; conditions: MDA-MB231; repeated experiment
[6] = system: A375 (Amelanotic Melanoma); assay: Cell viability analysis, skin cancer A375; conditions: for viability at 10 µM: Homo sapiens, A-375, 72 h
BxPC-3 = assay: Cell viability analysis, pancreatic cancer BxPC-3; conditions: BxPC-3; repeated experiment
[7] = system: AGS (Gastric Adenocarcinoma); assay: Cell viability analysis, gastric cancer AGS; conditions: for viability at 10 µM: Homo sapiens, 72 h
T24 = assay: Cell viability analysis, bladder cancer T24; conditions: T24; repeated experiment
[8] = system: SAS (Tongue squamous cell carcinoma); assay: Cell viability analysis, tongue cancer SAS; conditions: SAS; repeated experiment
[9] = system: LoVo (Colorectal Adenocarcinoma); assay: Cell viability analysis, colon cancer LoVo; conditions: for viability at 10 µM: Homo sapiens, LoVo, 72 h, read-out: cell viability (survival rate), LoVo, drug 10 μM, 72 hours, WST-1, OD450 nm
U-2OS = assay: Cell viability analysis, osteosarcoma U-2OS; conditions: U2OS; repeated experiment
[10] = system: HeLa (Cervix Adenocarcinoma); assay: Cell viability analysis, cervical cancer HeLa; conditions: for viability at 10 µM: Homo sapiens, HeLa, 72 h
AsPC-1 = assay: Cell viability analysis, pancreatic cancer AsPC-1; conditions: AsPC-1; repeated experiment
[11] = system: MKN-45 (Gastric Adenocarcinoma); assay: Cell viability analysis, gastric cancer MKN-45; conditions: for viability at 10 µM: Homo sapiens, MKN-45, 72 h
[12] = system: HI650 (Lung Adenocarcinoma); assay: Cell viability analysis, lung cancer HI650; conditions: for viability at 10 µM: Homo sapiens, NCI-H1650, 72 h
[13] = system: HL-60 (Acute Promyelocytic Leukemia); assay: Cell viability analysis, leukemia HL-60; conditions: for viability at 10 µM: Homo sapiens, HL-60, 72 h
[14] = system: 786-O (Renal adenocarcinoma); assay: Cell viability analysis, renal cancer 786-O; conditions: 786-O; repeated experiment
[15] = system: HepG2 (Hepatocellular Carcinoma); assay: Cell viability analysis, hepatic cancer HepG2; conditions: Homo sapiens, HepG2, 72 h
[16] = system: PC3 (p53−) (Prostate Adenocarcinoma); assay: Cell viability analysis, prostate cancer PC3; conditions: Homo sapiens, 72 h
[17] = drug 10 μM, 72 hours, WST-1, OD450 nm
[18] = drug 10 μM, 72 hours, WST-1, OD450 nm, read-out: cell viability (survival rate), A549
[19] = drug 10 μM, 72 hours, WST-1, OD450 nm, read-out: cell viability (survival rate), MCF7
[20] = drug 10 μM, 72 hours, WST-1, OD450 nm, read-out: cell viability (survival rate), TSGH
[21] = drug 10 μM, 72 hours, WST-1, OD450 nm, read-out: cell viability (survival rate), A375
[22] = drug 10 μM, 72 hours, WST-1, OD450 nm, read-out: cell viability (survival rate), HepG2
[23] = drug 10 μM, 72 hours, WST-1, OD450 nm, read-out: cell viability (survival rate), AGS
[24] = drug 10 μM, 72 hours, WST-1, OD450 nm, read-out: cell viability (survival rate), HeLa
[25] = drug 10 μM, 72 hours, WST-1, OD450 nm, read-out: cell viability (survival rate), MKN-45
[26] = drug 10 μM, 72 hours, WST-1, OD450 nm, read-out: cell viability (survival rate), PC3
[27] = drug 10 μM, 72 hours, WST-1, OD450 nm, read-out: cell viability (survival rate), H1650
[28] = drug 10 μM, 72 hours, WST-1, OD450 nm, read-out: cell viability (survival rate), HL-60
[29] = read-out: cell viability (survival rate), A549, drug 10 μM, 72 hours, WST-1, OD450 nm
[30] = read-out: cell viability (survival rate), MCF7, drug 10 μM, 72 hours, WST-1, OD450 nm
[31] = read-out: cell viability (survival rate), TSGH, drug 10 μM, 72 hours, WST-1, OD450 nm
[32] = read-out: cell viability (survival rate), A375, drug 10 μM, 72 hours, WST-1, OD450 nm
[33] = read-out: cell viability (survival rate), HepG2, drug 10 μM, 72 hours, WST-1, OD450 nm
[34] = read-out: cell viability (survival rate), AGS, drug 10 μM, 72 hours, WST-1, OD450 nm
[35] = read-out: cell viability (survival rate), HeLa, drug 10 μM, 72 hours, WST-1, OD450 nm
[36] = read-out: cell viability (survival rate), MKN-45, drug 10 μM, 72 hours, WST-1, OD450 nm
[37] = read-out: cell viability (survival rate), PC3, drug 10 μM, 72 hours, WST-1, OD450 nm
[38] = read-out: cell viability (survival rate), H1650, drug 10 μM, 72 hours, WST-1, OD450 nm
[39] = read-out: cell viability (survival rate), HL-60, drug 10 μM, 72 hours, WST-1, OD450 nm

C[C@@H]1[C@H](O)[C@@H](C)/C=C/C=C/CC/C=C/C=C/C=C/C=C/C(O[C@H]2O[C@H](C)[C@@H](O)[C@H](N)[C@@H]2O)CC2O[C@](O)(CC(O)C(O)CCC(O)CC(O)CC(O)CC(=O)O[C@H]1C)CC(O)C2C(=O)O (stereo partly shown) [Nystatin (Mycostatin), Nystatin]
The results of antibiotic drug inhibiting cancer cell lines (cell viability analysis), A549 ([1]; A549, repeated experiment): 94.3
cell viability (survival rate), A549 [1, 17]: 37.1
The results of antibiotic drug inhibiting cancer cell lines (cell viability analysis), BCC [2]: 92.4
The results of antibiotic drug inhibiting cancer cell lines (cell viability analysis), MCF-7 ([3]; MCF-7, repeated experiment): 89.88
cell viability (survival rate), MCF7 [3, 17]: 46.4
inhibition effect on different cancer cell lines (cancer cell lines): significant inhibition effect
The results of antibiotic drug inhibiting cancer cell lines (cell viability analysis), TSGH-8301 ([4]; TSGH-8301, repeated experiment): 91.24
cell viability (survival rate), TSGH [4, 17]: 42.1
The results of antibiotic drug inhibiting cancer cell lines (cell viability analysis), TOV-21G (TOV-21G): 74.99
The results of antibiotic drug inhibiting cancer cell lines (cell viability analysis), MDA-MB231 [5]: 86.09
The results of antibiotic drug inhibiting cancer cell lines (cell viability analysis), A375 ([6]; A375, repeated experiment): 99.37
cell viability (survival rate), A375 [6, 17]: 62.4
The results of antibiotic drug inhibiting cancer cell lines (cell viability analysis), BxPC-3 (BxPC-3): 69.94
cell viability (survival rate), AGS [7, 17]: 50.8
The results of antibiotic drug inhibiting cancer cell lines (cell viability analysis), T24 (T24): 76.44
The results of antibiotic drug inhibiting cancer cell lines (cell viability analysis), SAS [8]: 97.09
cell viability (survival rate), LoVo [9, 17]: 70.9
The results of antibiotic drug inhibiting cancer cell lines (cell viability analysis), U2OS (U-2OS): 76.11
cell viability (survival rate), HeLa [10, 17]: 59.2
The results of antibiotic drug inhibiting cancer cell lines (cell viability analysis), AsPC-1 (AsPC-1): 75.83
The results of antibiotic drug inhibiting cancer cell lines (cell viability analysis), MKN-45 ([11]; MKN-45, repeated experiment): 95.89
cell viability (survival rate), MKN-45 [11, 17]: 44.7
The results of antibiotic drug inhibiting cancer cell lines (cell viability analysis), H1650 ([12]; H1650, repeated experiment): 72.42
cell viability (survival rate), H1650 [12, 17]: 65.4
cell viability (survival rate), HL-60 [13, 17]: 96.2
The results of antibiotic drug inhibiting cancer cell lines (cell viability analysis), 786-O [14]: 89.48

CC(C)[C@H](N)C(=O)OCCOCn1cnc2c(=O)[nH]c(N)nc21 [Valaciclovir HCl]
viability at 10 µM [1, 18]: 126%
viability at 10 µM [3, 19]: 67.8%
inhibition effect on different cancer cell lines (cancer cell lines): significant inhibition effect
viability at 10 µM [4, 20]: 83.9%
viability at 10 µM [6, 21]: 95.6%
viability at 10 µM [15, 22]: 110%
viability at 10 µM [7, 23]: 110%
viability at 10 µM [9]: 97%
viability at 10 µM [10, 24]: 109%
viability at 10 µM [11, 25]: 91.6%
viability at 10 µM [16, 26]: 68.3%
viability at 10 µM [12, 27]: 90.6%
viability at 10 µM [13, 28]: 103%

C=C[C@]1(C)C[C@@H](OC(=O)CSC(C)(C)CNC(=O)[C@H](N)C(C)C)[C@]2(C)[C@H](C)CC[C@]3(CCC(=O)[C@H]32)[C@@H](C)[C@@H]1O [Valnemulin HCl]
viability at 10 µM [1, 29]: 62.2%
viability at 10 µM [3, 30]: 66.7%
inhibition effect on different cancer cell lines (cancer cell lines): significant inhibition effect
viability at 10 µM [4, 31]: 66.9%
viability at 10 µM [6, 32]: 57.1%
viability at 10 µM [15, 33]: 126%
viability at 10 µM [7, 34]: 75.5%
viability at 10 µM [9]: 73.6%
viability at 10 µM [10, 35]: 117%
viability at 10 µM [11, 36]: 91.4%
viability at 10 µM [16, 37]: 83.4%
viability at 10 µM [12, 38]: 78.8%
viability at 10 µM [13, 39]: 93.3%

Nc1ncnc2c1ncn2[C@@H]1O[C@H](CO)[C@@H](O)[C@@H]1O [Vidarabine (Vira-A), Vidarabine]
viability at 10 µM [1, 29]: 32.2%
viability at 10 µM [3, 30]: 36.5%
inhibition effect on different cancer cell lines (cancer cell lines): significant inhibition effect
viability at 10 µM [4, 31]: 68.6%
viability at 10 µM [6, 32]: 48.1%
viability at 10 µM [15, 33]: 74.2%
viability at 10 µM [7, 34]: 104%
viability at 10 µM [9]: 72.9%
viability at 10 µM [10, 35]: 47.7%
viability at 10 µM [11, 36]: 44.4%
viability at 10 µM [16, 37]: 70.6%
viability at 10 µM [12, 38]: 78.8%
viability at 10 µM [13, 39]: 99%

CC(=O)N[C@H]1[C@H]([C@H](O)[C@H](O)CO)OC(C(=O)O)=C[C@@H]1N=C(N)N [Zanamivir (Relenza), Zanamivir]
viability at 10 µM [1, 18]: 93%
viability at 10 µM [3, 19]: 69.6%
inhibition effect on different cancer cell lines (cancer cell lines): significant inhibition effect
viability at 10 µM [4, 20]: 88.5%
viability at 10 µM [6, 21]: 51.5%
viability at 10 µM [15, 22]: 110%
viability at 10 µM [7, 23]: 75.1%
viability at 10 µM [9]: 77.3%
viability at 10 µM [10, 24]: 71.8%
viability at 10 µM [11, 25]: 85.8%
viability at 10 µM [16, 26]: 106%
viability at 10 µM [12, 27]: 62.7%
viability at 10 µM [13, 28]: 146%

CCS(=O)(=O)CCn1c([N+](=O)[O-])cnc1C [tinidazole]
viability at 10 µM [1, 29]: 79.5%
viability at 10 µM [3, 30]: 88%
inhibition effect on different cancer cell lines (cancer cell lines): significant inhibition effect
viability at 10 µM [4, 31]: 112%
viability at 10 µM [6, 32]: 60.6%
viability at 10 µM [15, 33]: 95.5%
viability at 10 µM [7, 34]: 104%
viability at 10 µM [9]: 78.5%
viability at 10 µM [10, 35]: 97.8%
viability at 10 µM [11, 36]: 100%
viability at 10 µM [16, 37]: 85.6%
viability at 10 µM [12, 38]: 91.1%
viability at 10 µM [13, 39]: 89%
